# In ChEMBL document CHEMBL2074120, “Hepatic uptake of bilirubin and its conjugates by the human organic anion transporter SLC21A6” (J Biol Chem, 2001):
# T1: Solute carrier organic anion transporter family member 1B3 (Homo sapiens, UniProt Q9NPD5)
# T1 sequence (Q9NPD5 whole entry): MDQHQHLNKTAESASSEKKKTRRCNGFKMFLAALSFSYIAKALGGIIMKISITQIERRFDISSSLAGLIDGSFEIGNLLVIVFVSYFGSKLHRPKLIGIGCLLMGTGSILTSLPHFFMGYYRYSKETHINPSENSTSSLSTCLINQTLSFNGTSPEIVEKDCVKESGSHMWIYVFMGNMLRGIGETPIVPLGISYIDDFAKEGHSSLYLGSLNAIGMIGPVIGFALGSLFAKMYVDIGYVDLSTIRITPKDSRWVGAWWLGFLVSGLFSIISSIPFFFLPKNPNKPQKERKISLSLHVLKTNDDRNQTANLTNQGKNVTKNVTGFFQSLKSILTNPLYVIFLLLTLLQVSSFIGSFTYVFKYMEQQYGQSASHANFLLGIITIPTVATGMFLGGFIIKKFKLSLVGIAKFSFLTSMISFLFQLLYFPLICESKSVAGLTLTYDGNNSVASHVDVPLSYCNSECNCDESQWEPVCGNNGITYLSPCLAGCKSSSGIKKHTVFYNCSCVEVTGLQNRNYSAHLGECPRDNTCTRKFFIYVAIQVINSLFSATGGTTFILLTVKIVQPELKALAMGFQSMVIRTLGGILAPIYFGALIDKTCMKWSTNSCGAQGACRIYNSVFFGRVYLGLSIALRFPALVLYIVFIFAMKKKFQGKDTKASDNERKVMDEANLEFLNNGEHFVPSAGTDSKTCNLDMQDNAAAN
# T2: OATP8 (OATP1B3, SLCO1B3) (Homo sapiens, UniProt Q9NPD5)
# T2 sequence (Q9NPD5 whole entry): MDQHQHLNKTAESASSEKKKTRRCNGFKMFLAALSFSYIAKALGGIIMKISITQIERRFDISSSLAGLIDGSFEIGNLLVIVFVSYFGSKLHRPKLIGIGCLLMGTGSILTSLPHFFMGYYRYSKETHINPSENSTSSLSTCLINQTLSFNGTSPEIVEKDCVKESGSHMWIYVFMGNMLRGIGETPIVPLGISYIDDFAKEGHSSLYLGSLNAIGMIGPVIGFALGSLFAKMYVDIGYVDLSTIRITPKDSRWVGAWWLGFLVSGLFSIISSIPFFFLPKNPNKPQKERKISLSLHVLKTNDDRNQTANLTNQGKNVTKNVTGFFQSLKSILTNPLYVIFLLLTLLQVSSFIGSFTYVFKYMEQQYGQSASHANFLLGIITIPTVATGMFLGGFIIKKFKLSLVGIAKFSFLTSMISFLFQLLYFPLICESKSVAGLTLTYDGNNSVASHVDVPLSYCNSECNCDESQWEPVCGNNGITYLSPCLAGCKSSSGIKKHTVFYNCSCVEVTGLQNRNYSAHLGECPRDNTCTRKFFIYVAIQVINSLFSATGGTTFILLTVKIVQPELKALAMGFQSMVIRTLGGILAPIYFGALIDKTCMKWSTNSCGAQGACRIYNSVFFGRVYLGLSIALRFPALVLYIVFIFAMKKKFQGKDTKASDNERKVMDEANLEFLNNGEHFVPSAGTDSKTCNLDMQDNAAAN
# T3: Solute carrier organic anion transporter family member 1B1 (Homo sapiens, UniProt Q9Y6L6)
# T3 sequence (Q9Y6L6 whole entry): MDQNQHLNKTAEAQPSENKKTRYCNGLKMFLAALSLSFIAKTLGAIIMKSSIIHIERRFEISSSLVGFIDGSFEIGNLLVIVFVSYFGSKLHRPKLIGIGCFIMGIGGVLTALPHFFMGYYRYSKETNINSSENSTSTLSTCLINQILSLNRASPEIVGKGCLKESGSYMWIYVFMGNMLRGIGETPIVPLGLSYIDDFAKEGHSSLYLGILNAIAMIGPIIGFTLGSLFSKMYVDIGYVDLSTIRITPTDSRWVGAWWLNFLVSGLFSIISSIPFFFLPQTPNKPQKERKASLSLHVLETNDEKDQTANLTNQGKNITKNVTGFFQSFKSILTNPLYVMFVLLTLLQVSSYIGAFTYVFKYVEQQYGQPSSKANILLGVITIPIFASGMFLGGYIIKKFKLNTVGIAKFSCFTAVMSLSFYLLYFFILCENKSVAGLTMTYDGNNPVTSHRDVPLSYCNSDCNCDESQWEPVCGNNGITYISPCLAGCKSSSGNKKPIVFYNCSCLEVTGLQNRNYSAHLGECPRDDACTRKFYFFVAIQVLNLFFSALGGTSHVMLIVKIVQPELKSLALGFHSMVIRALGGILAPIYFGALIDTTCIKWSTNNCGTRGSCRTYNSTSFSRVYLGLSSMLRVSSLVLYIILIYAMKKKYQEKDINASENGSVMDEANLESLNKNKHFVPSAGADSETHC
# Key:
# Assay type in all cases: functional, cell-based
# [1] = biological target: T1, Solute carrier organic anion transporter family member 1B3; experiment: (§1) TP_TRANSPORTER: uptake in OATP8-expressing HEK293 cells; conditions: hek293
# OATP8 (OATP1B3, SLCO1B3) = biological target: T2, OATP8 (OATP1B3, SLCO1B3); experiment: as §1; conditions: HEK293 cells expressing OATP8
# [2] = biological target: T3, Solute carrier organic anion transporter family member 1B1; experiment: (§2) TP_TRANSPORTER: uptake in OATP-C-expressing HEK293 cells
# [3] = biological target: T1, Solute carrier organic anion transporter family member 1B3; experiment: TP_TRANSPORTER: inhibition of E217betaG uptake (E217betaG: 2 uM, ICG: 10 uM) in OATP8-expressing HEK293 cells; conditions: hek293, 10 µM
# [4] = biological target: T3, Solute carrier organic anion transporter family member 1B1; experiment: TP_TRANSPORTER: inhibition of E217betaG uptake (E217betaG: 2 uM, ICG: 10 uM) in OATP-C-expressing HEK293 cells; conditions: hek293, 10 µM
# [5] = biological target: T1, Solute carrier organic anion transporter family member 1B3; experiment: TP_TRANSPORTER: inhibition of E217betaG uptake (E217betaG: 2 uM, Rifampicin: 75 uM) in OATP8-expressing HEK293 cells; conditions: hek293, 75 µM
# [6] = biological target: T3, Solute carrier organic anion transporter family member 1B1; experiment: TP_TRANSPORTER: inhibition of E217betaG uptake (E217betaG: 2 uM, Rifampicin: 75 uM) in OATP-C-expressing HEK293 cells; conditions: hek293, 75 µM
# [7] = biological target: T1, Solute carrier organic anion transporter family member 1B3; experiment: TP_TRANSPORTER: inhibition of E217betaG uptake (E217betaG: 2 uM, Rifamycin SV: 50 uM) in OATP8-expressing HEK293 cells; conditions: hek293, 50 µM
# [8] = biological target: T3, Solute carrier organic anion transporter family member 1B1; experiment: TP_TRANSPORTER: inhibition of E217betaG uptake (E217betaG: 2 uM, Rifamycin SV: 50 uM) in OATP-C-expressing HEK293 cells; conditions: hek293, 50 µM
# [9] = biological target: T3, Solute carrier organic anion transporter family member 1B1; experiment: TP_TRANSPORTER: inhibition of Bilirubin uptake (Bilirubin: 10 uM, BSP: 5 uM) in OATP-C-expressing HEK293 cells; conditions: hek293, 5 µM
# [10] = substrate: C=CC1=C(C)/C(=C/c2[nH]c(Cc3[nH]c(/C=C4\NC(=O)C(C)=C4C=C)c(C)c3CCC(=O)O[C@@H]3OC(C(=O)O)[C@@H](O)C(O)C3O)c(CCC(=O)O)c2C)NC1=O; experiment: as §2
# [11] = substrate: C=CC1=C(C)/C(=C/c2[nH]c(Cc3[nH]c(/C=C4\NC(=O)C(C)=C4C=C)c(C)c3CCC(=O)O[C@@H]3O[C@@H](C(=O)O)[C@H](O)[C@@H](O)[C@@H]3O)c(CCC(=O)O[C@@H]3O[C@H](C(=O)O)[C@H](O)[C@H](O)[C@@H]3O)c2C)NC1=O; experiment: as §2
# [12] = substrate: C[C@]12CC[C@@H]3c4ccc(OS(=O)(=O)O)cc4CC[C@H]3[C@@H]1CCC2=O; experiment: as §2
# [13] = substrate: O=C1OC(c2ccc(O)c(S(=O)(=O)O)c2)(c2ccc(O)c(S(=O)(=O)O)c2)c2c(Br)c(Br)c(Br)c(Br)c21; experiment: as §2
# [14] = substrate: [H][C@@]12CC=C3C[C@@H](OS(=O)(=O)O)CC[C@]3(C)[C@@]1([H])CC[C@]1(C)C(=O)CC[C@@]21[H]; experiment: as §2
molecule,measurement,setting,value
C=CC1=C(C)/C(=C/c2[nH]c(Cc3[nH]c(/C=C4\NC(=O)C(C)=C4C=C)c(C)c3CCC(=O)O[C@@H]3O[C@@H](C(=O)O)[C@H](O)[C@@H](O)[C@@H]3O)c(CCC(=O)O[C@@H]3O[C@H](C(=O)O)[C@H](O)[C@H](O)[C@@H]3O)c2C)NC1=O,Activity,[1],is not a substrate [-]
C=CC1=C(C)/C(=C/c2[nH]c(Cc3[nH]c(/C=C4\NC(=O)C(C)=C4C=C)c(C)c3CCC(=O)O[C@@H]3OC(C(=O)O)[C@@H](O)C(O)C3O)c(CCC(=O)O)c2C)NC1=O (some centres not stated) [BILIRUBIN MONOGLUCURONIDE],Km,"OATP8 (OATP1B3, SLCO1B3)",0.5 µM
C=CC1=C(C)/C(=C/c2[nH]c(Cc3[nH]c(/C=C4\NC(=O)C(C)=C4C=C)c(C)c3CCC(=O)O)c(CCC(=O)O)c2C)NC1=O [BILIRUBIN],Activity,[2],substrate [+]
C[C@]12CC[C@@H]3c4ccc(OS(=O)(=O)O)cc4CC[C@H]3[C@@H]1CCC2=O [ESTRONE SULFURIC ACID],Activity,[1],is not a substrate [-]
CC1(C)C(/C=C/C=C/C=C/C=C2/N(CCCCS(=O)(=O)[O-])c3ccc4ccccc4c3C2(C)C)=[N+](CCCCS(=O)(=O)[O-])c2ccc3ccccc3c21.[Na+] [INDOCYANINE GREEN],Activity,[3],is not an inhibitor [-]
same,Activity,[4],inhibitor [(at a rough estimate) 5 % of control]
C[C@]12CC[C@H](OS(=O)(=O)O)CC1=CC[C@@H]1[C@@H]2CC[C@]2(C)C(=O)CC[C@@H]12 [PRASTERONE SULFURIC ACID],Km,"OATP8 (OATP1B3, SLCO1B3)",> 30 µM
CO[C@H]1/C=C/O[C@@]2(C)Oc3c(C)c(O)c4c(O)c(c(/C=N/N5CCN(C)CC5)c(O)c4c3C2=O)NC(=O)/C(C)=C\C=C\[C@H](C)[C@H](O)[C@@H](C)[C@@H](O)[C@@H](C)[C@H](OC(C)=O)[C@@H]1C [RIFAMPIN],Activity,[5],inhibitor [(at a rough estimate) 10 % of control]
same,Activity,[6],inhibitor [(at a rough estimate) 20 % of control]
CO[C@H]1/C=C/O[C@@]2(C)Oc3c(C)c(O)c4c(O)c(cc(O)c4c3C2=O)NC(=O)/C(C)=C\C=C\[C@H](C)[C@H](O)[C@@H](C)[C@@H](O)[C@@H](C)[C@H](OC(C)=O)[C@@H]1C [RIFAMYCIN],Activity,[7],inhibitor [(at a rough estimate) 35 % of control]
same,Activity,[8],inhibitor [(at a rough estimate) 20 % of control]
O=C1OC(c2ccc(O)c(S(=O)(=O)[O-])c2)(c2ccc(O)c(S(=O)(=O)[O-])c2)c2c(Br)c(Br)c(Br)c(Br)c21.[Na+].[Na+] [SULFOBROMOPHTHALEIN SODIUM],Activity,[9],inhibitor [(at a rough estimate) 15 % of control]
Solute carrier organic anion transporter family member 1B1 (Homo sapiens) (protein) MDQNQHLNKTAEAQPSENKKTRYCNGLKMFLAALSLSFIAKTLGAIIMKSSIIHIERRFEISSSLVGFIDGSFEIGNLLVIVFVSYFGSKLHRPKLIGIGCFIMGIGGVLTALPHFFMGYYRYSKETNINSSENSTSTLSTCLINQILSLNRASPEIVGKGCLKESGSYMWIYVFMGNMLRGIGETPIVPLGLSYIDDFAKEGHSSLYLGILNAIAMIGPIIGFTLGSLFSKMYVDIGYVDLSTIRITPTDSRWVGAWWLNFLVSGLFSIISSIPFFFLPQTPNKPQKERKASLSLHVLETNDEKDQTANLTNQGKNITKNVTGFFQSFKSILTNPLYVMFVLLTLLQVSSYIGAFTYVFKYVEQQYGQPSSKANILLGVITIPIFASGMFLGGYIIKKFKLNTVGIAKFSCFTAVMSLSFYLLYFFILCENKSVAGLTMTYDGNNPVTSHRDVPLSYCNSDCNCDESQWEPVCGNNGITYISPCLAGCKSSSGNKKPIVFYNCSCLEVTGLQNRNYSAHLGECPRDDACTRKFYFFVAIQVLNLFFSALGGTSHVMLIVKIVQPELKSLALGFHSMVIRALGGILAPIYFGALIDTTCIKWSTNNCGTRGSCRTYNSTSFSRVYLGLSSMLRVSSLVLYIILIYAMKKKYQEKDINASENGSVMDEANLESLNKNKHFVPSAGADSETHC,Km,[10],0.1 µM
same,Km,[11],0.28 µM
same,Km,[12],12.5 µM
same,Km,[13],0.14 µM
same,Km,[14],21.5 µM
